For 25 compounds, IC50 results are on record in patent US20250214942A1, “INHIBITORS OF RECEPTOR INTERACTING PROTEIN KINASE I FOR THE TREATMENT OF DISEASE” (Board of Regents, The University of Texas System, priority 2019, published 2025).

Assay [1] has as its system human monocytic cell line U937. In words: Human U937 cellular necroptosis assay (TNFalpha + z-VAD-FMK, Cell Titer-Glo viability). The settings on record: Homo sapiens, U-937, 22 h, U937 cells, 25 ng/mL human TNFalpha + 25 μM z-VAD-FMK, read-out: hU937 Avg IC50. It counts as cell-based. The gist of the method: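 Cells resuspended in phenol red-free RPMI with 10% FBS, stimulated with 25 ng/mL human TNFalpha plus 25 μM z-VAD-FMK, then given serially diluted compound for 22 h at 37° C, 5% CO2. Viability by Cell Titer-Glo 2.0 luminescence; IC50 from four-parameter logistic fit, averaged across runs.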
Background: In ATP-based viability assays light output follows the ATP content of the culture.

The target in assay [2] is RIPK1 (Homo sapiens (Human), UniProt Q13546). In words: ADP-Glo kinase assay (RIPK1 activity, conversion of ATP to ADP). It counts as biochemical. The note with it: 5 nM RIPK1, 50 μM ATP, 6 h reaction; read-out: RIPK1 Enzyme Avg IC50. In a few lines:
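ADP-Glo luminescence of ATP-to-ADP conversion by 5 nM RIPK1 with 50 μM ATP (final), 6 h reaction after 10 min compound preincubation at rt. Buffer was 50 mM HEPES pH 7.5, 30 mM MgCl2, 0.05% BSA, 0.02% CHAPS. IC50 from four-parameter logistic fit.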

In general, IC50 refers to the midpoint of a concentration-inhibition curve.

Molecules are shown by their SMILES.

Chain of RIPK1 (Q13546 1-327): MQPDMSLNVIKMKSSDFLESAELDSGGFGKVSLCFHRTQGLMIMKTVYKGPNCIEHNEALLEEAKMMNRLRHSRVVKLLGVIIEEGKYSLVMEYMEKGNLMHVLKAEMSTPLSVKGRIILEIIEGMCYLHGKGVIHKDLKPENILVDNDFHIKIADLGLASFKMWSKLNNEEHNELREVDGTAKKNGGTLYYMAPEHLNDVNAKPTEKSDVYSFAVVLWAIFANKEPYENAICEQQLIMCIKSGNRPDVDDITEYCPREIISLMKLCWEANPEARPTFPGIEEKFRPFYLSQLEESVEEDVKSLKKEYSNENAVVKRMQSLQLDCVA

As for `CN(CC12CC(C(=O)N3N=CCC3c3cc(F)cc(F)c3)(C1)C2)c1cc(C#N)ncn1` (centres unmarked) [Example 162, 6-(((3-(5-(3,5-difluorophenyl)-4,5-dihydro-1H-pyrazole-1-carbonyl)-bicyclo[1.1.1]pentan-1-yl)methyl)(methyl)amino)pyrimidine-4-carbonitrile], the figures for the IC50 in assay [1] and in assay [2] were 210 nM and 46 nM, respectively.

As to `N#Cc1cc(NCC23CC(C(=O)N4N=CCC4c4cc(F)cc(F)c4)(C2)C3)ncn1` (centres unmarked) [Example 12, 6-(((3-(5-(3,5-Difluorophenyl)-4,5-dihydro-1H-pyrazole-1-carbonyl)bicyclo[1.1.1]pentan-1-yl)methyl)amino)pyrimidine-4-carbonitrile], the IC50 was determined as 887 nM in assay [1] and 243 nM in assay [2].

As to `N#Cc1ccc2c(cnn2CC23CC(C(=O)NCc4cc(F)cc(F)c4)(C2)C3)c1` [Example 261, 3-((5-cyano-1H-indazol-1-yl)methyl)-N-(3,5-difluoro-benzyl)bicyclo[1.1.1]pentane-1-carboxamide], the IC50 in assay [1] came out at 9470 nM; in assay [2], 4520 nM.

For `O=C(N1CC(F)CC1c1cccc(F)c1)C12CC(C(F)c3ccccc3)(C1)C2` (centres unmarked) [Example 41, (3-(Fluoro(phenyl)methyl)bicyclo[1.1.1]pentan-1-yl)-(4-fluoro-2-(3-fluorophenyl)pyrrolidin-1-yl)methanone], the IC50 is 272 nM in assay [1] and 31 nM in assay [2].

Consider `Cc1ccccc1OCC12CC(C(=O)N3N=CCC3c3cc(F)cc(F)c3)(C1)C2` (centres unmarked) [Example 337, (5-(3,5-difluorophenyl)-4,5-dihydro-1H-pyrazol-1-yl)(3-((o-tolyloxy)methyl)bicyclo-[1.1.1]pentan-1-yl)methanone], for which the IC50 in assay [1] amounted to 140 nM; in assay [2], 24 nM.

As to `O=C(N1N=CCC1c1cc(F)cc(F)c1)C12CC(Cn3cc4ccc(F)cc4n3)(C1)C2` (centres unmarked) [Example 62, (5-(3,5-difluorophenyl)-4,5-dihydro-1H-pyrazol-1-yl)(3-((6-fluoro-2H-indazol-2-yl)methyl)bicyclo[1.1.1]-pentan-1-yl)methanone], the IC50 came out at 133 nM in assay [1] and 46 nM in assay [2].

As to `O=C(N1N=CCC1c1cc(F)cc(F)c1)C12CC(COc3ccc(F)cc3Cl)(C1)C2` (centres unmarked) [Example 334, (3-((2-chloro-4-fluoro-phenoxy)methyl)bicyclo-[1.1.1]pentan-1-yl)(5-(3,5-difluorophenyl)-4,5-dihydro-1H-pyrazol-1-yl)methanone], the concentration for half-maximal inhibition (IC50) in assay [1] was found to be 45 nM; in assay [2] it was 18 nM.

As to `N#Cc1ccc2c(cnn2CC23CC(C(=O)N4CCC4c4cccc(Cl)c4Cl)(C2)C3)c1` (centres unmarked) [Example 260, 1-((3-(2-(2,3-dichlorophenyl)-azetidine-1-carbonyl)bicyclo-[1.1.1]pentan-1-yl)methyl)-1H-indazole-5-carbonitrile], the figures for the IC50 in assay [1] and in assay [2] were 5600 nM and 528 nM, respectively.

Regarding `Cc1cncc(C2CC=NN2C(=O)C23CC(Cn4cc(C#N)cn4)(C2)C3)n1` (centres unmarked) [Example 169, 1-((3-(5-(6-methylpyrazin-2-yl)-4,5-dihydro-1H-pyrazole-1-carbonyl)bicyclo[1.1.1]-pentan-1-yl)methyl)-1H-pyrazole-4-carbonitrile], the half-inhibitory concentration (IC50) in assay [1] came out at 3310 nM; in assay [2], 343 nM.

With `N#Cc1cncc(C2CC=NN2C(=O)C23CC(Cn4cc(C#N)cn4)(C2)C3)c1` (centres unmarked) [Example 168, 5-(1-(3-((4-cyano-1H-pyrazol-1-yl)methyl)-bicyclo[1.1.1]pentane-1-carbonyl)-4,5-dihydro-1H-pyrazol-5-yl)nicotinonitrile], the half-inhibitory concentration (IC50) in assay [1] came to 6190 nM; in assay [2], 865 nM.

For the compound `O=C(N1N=CCC1c1cc(F)cc(F)c1)C12CC(Cn3cc4c(F)cccc4n3)(C1)C2` (centres unmarked) [Example 21, (5-(3,5-Difluorophenyl)-4,5-dihydro-1H-pyrazol-1-yl)(3-((4-fluoro-2H-indazol-2-yl)methyl)bicyclo[1.1.1]pentan-1-yl)methanone], the IC50 in assay [1] was 114 nM; in assay [2], 70 nM.

As to `N#Cc1ccc(OCC23CC(C(=O)N4N=CCC4c4cc(F)cc(F)c4)(C2)C3)nc1` (centres unmarked) [Example 320, 6-((3-(5-(3,5-difluorophenyl)-4,5-dihydro-1H-pyrazole-1-carbonyl)bicyclo[1.1.1]pentan-1-yl)methoxy)nicotinonitrile], the IC50 in assay [1] was determined as 30 nM; in assay [2], 19 nM.

Consider `O=C(N1N=CCC1c1cc(F)cc(F)c1)C12CC(COc3ccc(Br)cc3F)(C1)C2` (centres unmarked) [Example 331, (3-((4-bromo-2-fluoro-phenoxy)methyl)bicyclo-[1.1.1]pentan-1-yl)(5-(3,5-difluorophenyl)-4,5-dihydro-1H-pyrazol-1-yl)methanone], for which the IC50 came to 28 nM in assay [1] and 13 nM in assay [2].

`Cc1c2cc(C#N)ccc2nn1CC12CC(C(=O)N3N=CCC3c3cncc(F)c3)(C1)C2` (centres unmarked) [Example 129, 2-((3-(5-(5-fluoropyridin-3-yl)-4,5-dihydro-1H-pyrazole-1-carbonyl)bicyclo[1.1.1]-pentan-1-yl)methyl)-3-methyl-2H-indazole-5-carbonitrile]: the IC50 in assay [1] was 3860 nM; in assay [2] it was 515 nM.

`N#Cc1cncc(C2CC=NN2C(=O)C23CC(Cn4ncc5cc(C#N)ccc54)(C2)C3)c1` (centres unmarked) [Example 173, 1-((3-(5-(5-cyanopyridin-3-yl)-4,5-dihydro-1H-pyrazole-1-carbonyl)bicyclo[1.1.1]-pentan-1-yl)methyl)-1H-indazole-5-carbonitrile]: the IC50 in assay [1] was found to be 53 nM; in assay [2] it was 9.1 nM.

On to `O=C(N1N=CCC1c1cc(F)cc(F)c1)C12CC(Cn3nc4ccccc4c3Cl)(C1)C2` (centres unmarked) [Example 140, (3-((3-chloro-2H-indazol-2-yl)methyl)bicyclo[1.1.1]-pentan-1-yl)(5-(3,5-difluorophenyl)-4,5-dihydro-1H-pyrazol-1-yl)methanone], for which the 50% inhibitory concentration (IC50) in assay [1] amounted to 53 nM; in assay [2] it was 49 nM.

For the compound `COc1ccc(C(F)C23CC(C(=O)N4N=CCC4c4cc(F)cc(F)c4)(C2)C3)cc1` (centres unmarked) [Example 228, (5-(3,5-difluorophenyl)-4,5-dihydro-1H-pyrazol-1-yl)(3-(fluoro(4-methoxyphenyl)-methyl)bicyclo[1.1.1]pentan-1-yl)methanone], the values for the half-maximal inhibitory concentration (IC50) in assay [1] and in assay [2] were 2400 nM and 433 nM, respectively.

As to `Cn1cc(-c2cc(OCC34CC(C(=O)N5CC(F)CC5c5cccc(F)c5)(C3)C4)ncn2)cn1` (single isomer, unassigned) [Example 29, (4-Fluoro-2-(3-fluorophenyl)pyrrolidin-1-yl)(3-(((6-(1-methyl-1H-pyrazol-4-yl)pyrimidin-4-yl)oxy)methyl)bicyclo[1.1.1]pentan-1-yl)methanone], the IC50 in assay [1] was found to be 647 nM; in assay [2], 213 nM.

In the case of `O=C(N1N=CCC1c1cc(F)cc(F)c1)C12CC(Cn3ncc4cc(F)ccc43)(C1)C2` (centres unmarked) [Example 4, (5-(3,5-Difluorophenyl)-4,5-dihydro-1H-pyrazol-1-yl)(3-((5-fluoro-1H-indazol-1-yl)methyl)bicyclo[1.1.1]pentan-1-yl)methanone], the half-inhibitory concentration (IC50) in assay [1] was 9 nM; in assay [2], 19 nM.

Regarding `O=C(N1N=CCC1c1cc(F)ccc1F)C12CC(Cn3ncc4c(F)cccc43)(C1)C2` (centres unmarked) [Example 84, (5-(2,5-difluorophenyl)-4,5-dihydro-1H-pyrazol-1-yl)(3-((4-fluoro-1H-indazol-1-yl)-methyl)bicyclo[1.1.1]pentan-1-yl)methanone], the half-inhibitory concentration (IC50) came out at 3 nM in assay [1] and 22 nM in assay [2].

With `N#Cc1ccc2c(ccn2CC23CC(C(=O)N4N=CCC4c4cc(F)cc(F)c4)(C2)C3)n1` (centres unmarked) [Example 210, 1-((3-(5-(3,5-difluorophenyl)-4,5-dihydro-1H-pyrazole-1-carbonyl)bicyclo[1.1.1]pentan-1-yl)methyl)-1H-pyrrolo[3,2-b]pyridine-5-carbonitrile], the IC50 in assay [1] is 10 nM; in assay [2] it was 9.4 nM.

Consider `O=C(N1N=CCC1c1cc(F)cc(F)c1)C12CC(Cn3ncc4c3CCC4)(C1)C2` (centres unmarked) [Example 145, (5-(3,5-difluorophenyl)-4,5-dihydro-1H-pyrazol-1-yl)(3-((5,6-dihydrocyclopenta[c]-pyrazol-1(4H)-yl)methyl)-bicyclo[1.1.1]pentan-1-yl)methanone], for which the figures for the IC50 in assay [1] and in assay [2] were 701 nM and 169 nM, respectively.

Turning to `O=C(N1N=CCC1c1cc(F)cc(F)c1)C12CC(COc3ccccc3Cl)(C1)C2` (centres unmarked) [Example 336, (3-((2-chlorophenoxy)methyl)-bicyclo[1.1.1]pentan-1-yl)(5-(3,5-difluorophenyl)-4,5-dihydro-1H-pyrazol-1-yl)-methanone], the IC50 in assay [1] came out at 55 nM; in assay [2] it was 31 nM.

`N#Cc1ccc(OCC23CC(C(=O)N4N=CCC4c4cc(F)cc(F)c4)(C2)C3)c(F)c1` (centres unmarked) [Example 333, 4-((3-(5-(3,5-difluorophenyl)-4,5-dihydro-1H-pyrazole-1-carbonyl)bicyclo[1.1.1]pentan-1-yl)methoxy)-3-fluoro-benzonitrile]: the figures for the IC50 in assay [1] and in assay [2] were 36 nM and 16 nM, respectively.

Turning to `O=C(N1N=CCC1c1cc(F)cc(F)c1)C12CC(COc3ncc(F)cn3)(C1)C2` (centres unmarked) [Example 325, (5-(3,5-difluorophenyl)-4,5-dihydro-1H-pyrazol-1-yl)(3-(((5-fluoropyrimidin-2-yl)-oxy)methyl)bicyclo[1.1.1]-pentan-1-yl)methanone], the figures for the IC50 in assay [1] and in assay [2] were 193 nM and 21 nM, respectively.
